Results: patent US4221794A, “Method of imparting immunomodulating and antiviral activity” (Newport Pharmaceuticals International, Inc., priority 1979, dated 1980)

Columns and labels:
influenza virus = test: microbe, parasite or virus in culture; format: cell-based, influenza virus Type A/USSR 90 (HeLa cell cultures)
immune response = test: Immunomodulating activity (overall); format: cell-based
Text: (§1) The following three assay procedures are used to evaluate the ability of the test substances to modulate the activity of several classes of cells in the immune system. In these systems it is possible to identify both immunopotentiating activity (evidence by an enhancement of the parameter examined) as well as immunosuppressant activity (evidenced by an inhibition of the parameter examined).
(§2) Table 4 above presents the results of an evaluation of a number of these subject compounds as potentiators of the immune response. Three different test systems were used. The first involves a measure of the ability of the test compound to enhance the ability of mouse lymphocytes to proliferate in response to a plant mitogen (Con A). The second involves measuring the ability of the test compounds to enhance human lymphocyte proliferation in response to a second plant mitogen (PHA). The third system measures the ability of these test substances to enhance macrophage proliferation in response to a natural lymphokine (MMF, Macrophage Mitogenic Factor).

guinea pig macrophages = test: Lymphokine (MMF) induced guinea pig macrophage proliferation; format: cell-based; conditions: plus = immunostimulating, minus = immunoinhibiting, 0 = neither
Method: 3. The macrophage represents a subpopulation of white blood cells which is an important component of the immune system in control of both cellular and humoral immunity. The assay system described below evaluates the substances studied as potentiators of macrophage function.
Phytohemagglutinin (PHA) (HA-17) was purchased from Burroughs Wellcome. A preparation containing Macrophage Mitogen Factor (MMF) and Macrophage Activating Factor (MAF) was prepared from antigen-stimulated immune lymph node lymphocytes (guinea pig) as previously described by Hadden et al, Nature 257, 483-485 (1975). […] The active fraction was employed in both the proliferation and activation assays.
Ficoll-hypaque purified human peripheral blood lymphocytes were prepared and PHA-induced lymphocyte proliferation was assayed by the incorporation of tritiated thymidine as described in Hadden et al., Cell. Immunol. 20, 98-103 (1975). Each compound was analyzed in the presence of suboptimal, optimal and supraoptimal concentrations of PHA (0.001, 0.01, 0.1 units/ml respectively). Paraffin oil-induced guinea pig peritoneal macrophages were prepared and incubated as monolayer culture (>98% pure macrophages). Lymphokine (MMF)-induced proliferation was assayed by the incorporation of tritiated thymidine at 3 and 5 days of culture as described, Hadden et al, Nature 257, 483-485 (1975). Lymphokine (MAF)-induced macrophage activation to kill Listeria monocytogenes following 5 days of culture in the presence or absence of MAF was performed during a 6 hour period as described in Hadden and England, Immunopharmacology, pages 87-100 (Plenum Press, 1977). Phagocytosis was quantitated during a 20-minute exposure to Listeria monocytogenes by counting the number of macrophages containing bacteria and the number of bacteria per phagocytic cell on gram stained monolayers in Labtek chambers. Intracellular killing of bacteria was evaluated by counting the number of cells containing bacteria and the number of bacteria/cell 6 hours after the initial 20 minute exposure. Parallel experiments in which macrophages were lysed and intracellular bacteria were cultured confirm the validity of bacterial activity determined by this manner in this system. The drugs were employed in each of the three systems over serial log concentration range in triplicate in the presence and absence of mitogen or lymphokine. Each type of experiment was performed at least three times. Previous experiments indicate a parallelism of response to pharmacologic modulation in the proliferation and achivation assays.
as §2

[1] = tested on: human peripheral blood lymphocytes; test: Mitogen (PHA) induced human lymphocyte proliferation; format: cell-based; conditions: plus = immunostimulating, minus = immunoinhibiting, 0 = neither
mouse lymphocytes = test: Mitogen (Con A) induced mouse lymphocyte (spleen cell) proliferation; format: cell-based; conditions: for Maximum Percent Change, Mitogen Induced (Con A) Mouse Lymph. Prolif.: plus = immunostimulating, minus = immunoinhibiting, 0 = neither
Text: as §1
1. Mitogen-Induced Mouse Spleen Cell Assay
Mouse spleen cells contain a population of both B and T lymphocytes which can be stimulated by a number of foreign substances (e.g., plant mitogens such as Con A) to proliferate. This enhanced proliferation is an indication of enhanced cell mediated immunity. The method below describes the system used to evaluate test substances as immunopotentiators.
Concanavalin A (Calbiochem, La Jolla, California), Lot #210073, lyophilized in NaCl, was prepared first as a 1% solution and diluted as a 2×concentration for each dilution (0.5, 1.0, 2.5 μg/ml).
Six to eight week old male Balb/c and C3 H inbred mice were obtained from the following sources: Flow Research Animals, Inc., Dublin, Virginia; Charles River Breeding Laboratories, Wilmington, Massachusetts; Laboratory Supply Company, Indianapolis, Indiana; and Lionel Strong Foundation, San Diego, California.
Three to five mice were sacrificed by cervical dislocation and the spleens aseptically removed. Pooled spleens were minced and teased with sterile forceps; then strained through a double layer of nylon mesh. The cell suspension was washed once with 15 ml of RPMI 1640 supplemented with 5% fetal calf serum and antibiotics. Cells were cultured at a concentration of 10^6 cells/0.1 ml/well in micro-plates. Cultures were incubated in the presence or absence of mitogen in a humidified atmosphere containing 5% CO2 for 48 hours. The test compound was added to cultures at various concentrations concommitant with mitogen.
Proliferation was assayed by the degree of incorporation of 1.0 μCi of [^3 H] thymidine over an 18 hour incubation period. Cultures were harvested by a MASH unit (Otto Hiller Co., Madison, Wisconsin) and thymidine incorporation was assayed by liquid scintillation spectrometry. Cultures were performed in triplicate and data are expressed as means plus or minus the standard error of the experimental means. Drug stimulation indices over control values were also calculated and portrayed graphically.
as §2

Structure (SMILES)	% Inhibition of Hemadsorption Foci (influenza virus; Test Compound Conc. <10 μg/ml) [%]	inhibition at 100 µg/mL (influenza virus; unidentified influenza virus, read-out: % Inhibition of Hemadsorption Foci, Test Compound Conc. >100 μg/ml) [%]	potentiation of the immune response (in words) (immune response)	Maximum Percent Change, Lymphokine Induced (MMF) Guinea Pig Mac. Prolif. (guinea pig macrophages; 1.0-10 (unit not given)) [%]	Maximum Percent Change, Lymphokine Induced (MMF) Guinea Pig Mac. Prolif. (guinea pig macrophages; .01-1.0 (unit not given)) [%]	Maximum Percent Change, Mitogen Induced (PHA) Human Lymph. Prolif. ([1]; 1.0-10 (unit not given)) [%]	Maximum Percent Change, Mitogen Induced (PHA) Human Lymph. Prolif. ([1]; 10-100 (unit not given)) [%]	Maximum Percent Change, Mitogen Induced (PHA) Human Lymph. Prolif. ([1]; .01-1.0 (unit not given))	% Stimulation, Mitogen Induced Murine Lymphocyte Proliferation (mouse lymphocytes; 01-1.0 μg/ml) [%]	% Stimulation, Mitogen Induced Murine Lymphocyte Proliferation (mouse lymphocytes; 1.0-10 μg/ml)	Maximum Percent Change, Mitogen Induced (Con A) Mouse Lymph. Prolif. (mouse lymphocytes; 1.0-10 (unit not given)) [%]	% Stimulation, Mitogen Induced Murine Lymphocyte Proliferation (mouse lymphocytes; 10-100 μg/ml)	Maximum Percent Change, Mitogen Induced (Con A) Mouse Lymph. Prolif. (mouse lymphocytes; 10-100 (unit not given)) [%]	Maximum Percent Change, Mitogen Induced (Con A) Mouse Lymph. Prolif. (mouse lymphocytes; .01-1.0 (unit not given)) [%]	% Inhibition of Hemadsorption Foci (influenza virus; Test Compound Conc. >100 μg/ml) [%]	Potentiation of immunopotentiation by DIP.PAcBA salt (immune response; salt compared with parent compound)
CCCCCC[C@H]([C@H](C)O)n1cnc2c(=O)[nH]cnc21 (relative stereo) [NPT 15392, ERYTHRO-9-(2-HYDROXY-3-NONYL)HYPOXANTHINE]	86	100	potentiation of the immune response has been observed	23	33	20	-50	11-15%	> 50	30-50%	162	30-50%	-72	172		
CCCCCC[C@H]([C@H](C)O)n1cnc2c(=O)[nH]cnc21 (relative stereo) [NPT 15410]	58		potentiation of the immune response has been observed	23	12	60			> 50	30-50%	40	30-50%	40	140	96	Yes
